Test results taken from patent publication US10294202B2, “Pyrrolidinones as herbicides” (FMC Corporation, priority 2013, dated 2019).

Tests used:
wheat = assay: Test A pre-/postemergence herbicide test; assay type: in vivo, Triticum aestivum
In short: (§1)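 Both application timings used compounds in a non-phytotoxic solvent plus surfactant. Pre-emergence: soil sprayed directly after seeding into loam/sand. Post-emergence: foliage of 2–10 cm seedlings (1–2 leaves) sprayed. Injury rated ~10 days later, 0–100.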

morningglory = assay: Test A pre-/postemergence herbicide test; assay type: in vivo, Ipomoea spp.
In short: as §1

giant foxtail = assay: Test A pre-/postemergence herbicide test; assay type: in vivo, Setaria faberii
In short: as §1

velvetleaf = assay: Test A pre-/postemergence herbicide test; assay type: in vivo, Abutilon theophrasti
In short: as §1

barnyardgrass [1] = assay: Test B flooded paddy test; assay type: in vivo, Echinochloa crus-galli; conditions: Flood, scale of 0 to 100 where 0 is no effect and 100 is complete control
In short: (§2)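 Scoring: visual, compared with untreated controls, 0 = no effect through 100 = complete control, taken 13 to 15 days after treatment in the greenhouse. Compounds had been added to paddy water over soil flooded 3 cm deep at the plants' 2-leaf stage.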

sedge, umbrella = assay: Test B flooded paddy test; assay type: in vivo, Cyperus difformis; conditions: Flood, scale of 0 to 100 where 0 is no effect and 100 is complete control
In short: as §2

crabgrass, large = assay: Test A pre-/postemergence herbicide test; assay type: in vivo, Digitaria sanguinalis
In short: as §1

corn = assay: Test A pre-/postemergence herbicide test; assay type: in vivo, Zea mays
In short: as §1

rice = assay: Test B flooded paddy test; assay type: in vivo, Oryza sativa; conditions: Flood, scale of 0 to 100 where 0 is no effect and 100 is complete control
In short: as §2

pigweed = assay: Test A pre-/postemergence herbicide test; assay type: in vivo, Amaranthus retroflexus
In short: as §1

ducksalad = assay: Test B flooded paddy test; assay type: in vivo, Heteranthera limosa; conditions: Flood, scale of 0 to 100 where 0 is no effect and 100 is complete control
In short: as §2

barnyardgrass [2] = assay: Test A pre-/postemergence herbicide test; assay type: in vivo, Echinochloa crus-galli
In short: as §1

[3] = 125 g ai/ha, visual rating, 0 to 100 scale, 0 no effect, 100 complete control, approximately 10 days, preemergence
[4] = Postemergence, 125 g ai/ha, 0 to 100 scale, 0 is no effect, 100 is complete control
[5] = preemergence, 500 g ai/ha, 0 to 100 scale, 0 is no effect and 100 is complete control
[6] = Postemergence, 125 g ai/ha, 0 to 100 scale, 0 no effect, 100 complete control
[7] = Postemergence, 500 g ai/ha, 0 to 100 scale (0 no effect, 100 complete control)
[8] = Preemergence, 125 g ai/ha, visual rating on 0 to 100 scale (0 no effect, 100 complete control)
[9] = preemergence, 500 g ai/ha, 0 to 100 scale
[10] = Preemergence, 125 g ai/ha, 0 to 100 scale where 0 is no effect and 100 is complete control

COc1cc(C2CNC(=O)C2C(=O)Nc2ccccc2F)ccc1F (racemic) [Compound 194]
0: Plant response rating, Wheat (wheat; [3]) | Plant response rating, Wheat (wheat; [4]) | Wheat plant response rating (0 to 100 scale, 0 is no effect, 100 is complete control) (wheat; Postemergence, 500 g ai/ha) | Plant response rating, Wheat (wheat; [5]) | Plant response rating, Morningglory (morningglory; [3]) | Plant response rating, Morningglory (morningglory; [4]) | Morningglory plant response rating (0 to 100 scale, 0 is no effect, 100 is complete control) (morningglory; Postemergence, 500 g ai/ha) | Plant response rating, Morningglory (morningglory; [5]) | Plant response rating, Velvetleaf (velvetleaf; [3]) | Plant response rating, Velvetleaf (velvetleaf; [4]) | Velvetleaf plant response rating (0 to 100 scale, 0 is no effect, 100 is complete control) (velvetleaf; Postemergence, 500 g ai/ha) | Plant response rating, Velvetleaf (velvetleaf; [5]) | Plant response rating, Barnyardgrass (barnyardgrass [1]; 250 g ai/ha) | Plant response rating, Sedge, Umbrella (sedge, umbrella; 250 g ai/ha) | Plant response rating, Sedge, Umbrella (sedge, umbrella; 1000 g ai/ha) | Plant response rating, Corn (corn; [3]) | Plant response rating, Corn (corn; [4]) | Corn plant response rating (0 to 100 scale, 0 is no effect, 100 is complete control) (corn; Postemergence, 500 g ai/ha) | Plant response rating, Corn (corn; [5]) | Plant response rating, Rice (rice; 250 g ai/ha) | Plant response rating, Pigweed (pigweed; [3]) | Plant response rating, Pigweed (pigweed; [4]) | Pigweed plant response rating (0 to 100 scale, 0 is no effect, 100 is complete control) (pigweed; Postemergence, 500 g ai/ha) | Plant response rating, Pigweed (pigweed; [5]) | Plant response rating, Barnyardgrass (barnyardgrass [2]; [3])
10: Plant response rating, Foxtail, Giant (giant foxtail; [4])
100: Plant response rating, Crabgrass, Large (crabgrass, large; [5])
50: Plant response rating, Foxtail, Giant (giant foxtail; [3]) | Foxtail, Giant plant response rating (0 to 100 scale, 0 is no effect, 100 is complete control) (giant foxtail; Postemergence, 500 g ai/ha) | Plant response rating, Barnyardgrass (barnyardgrass [2]; [4])
20: Plant response rating, Rice (rice; 1000 g ai/ha)
80: Crabgrass, Large plant response rating (0 to 100 scale, 0 is no effect, 100 is complete control) (crabgrass, large; Postemergence, 500 g ai/ha) | Plant response rating, Ducksalad (ducksalad; 1000 g ai/ha) | Barnyardgrass plant response rating (0 to 100 scale, 0 is no effect, 100 is complete control) (barnyardgrass [2]; Postemergence, 500 g ai/ha) | Plant response rating, Barnyardgrass (barnyardgrass [2]; [5])
60: Plant response rating, Crabgrass, Large (crabgrass, large; [4])
90: Plant response rating, Foxtail, Giant (giant foxtail; [5]) | Plant response rating, Crabgrass, Large (crabgrass, large; [3])
45: Plant response rating, Ducksalad (ducksalad; 250 g ai/ha)
65: Plant response rating, Barnyardgrass (barnyardgrass [1]; 1000 g ai/ha)

O=C1NCC(c2ccc(Cl)nc2)C1C(=O)Nc1ccccc1F (centres unmarked) [Compound 41]
60: Plant response rating, Crabgrass, Large (crabgrass, large; [7]) | Crabgrass, Large plant response rating (crabgrass, large; [8]) | Plant response rating, Barnyardgrass (barnyardgrass [2]; preemergence, 500 g ai/ha, 0 to 100 scale (0 no effect, 100 complete control))
20: Plant response rating, Sedge, Umbrella (sedge, umbrella; 250 g ai/ha)
30: Plant response rating, Velvetleaf (velvetleaf; [7]) | Plant response rating, Crabgrass, Large (crabgrass, large; [6]) | Plant response rating, Pigweed (pigweed; [7]) | Barnyardgrass plant response rating (barnyardgrass [2]; [8])
0: Plant response rating, Wheat (wheat; [6]) | Plant response rating, Wheat (wheat; [7]) | Wheat plant response rating (wheat; [8]) | Plant response rating, Wheat (wheat; [9]) | Plant response rating, Morningglory (morningglory; [6]) | Plant response rating, Morningglory (morningglory; [7]) | Plant response rating, Foxtail, Giant (giant foxtail; [6]) | Plant response rating, Foxtail, Giant (giant foxtail; [7]) | Plant response rating, Velvetleaf (velvetleaf; [6]) | Velvetleaf plant response rating (velvetleaf; [8]) | Plant response rating, Velvetleaf (velvetleaf; [9]) | Plant response rating, Barnyardgrass (barnyardgrass [1]; 250 g ai/ha) | Plant response rating, Corn (corn; [6]) | Plant response rating, Corn (corn; [7]) | Corn plant response rating (corn; [8]) | Plant response rating, Corn (corn; [9]) | Plant response rating, Rice (rice; 250 g ai/ha) | Plant response rating, Pigweed (pigweed; [6]) | Pigweed plant response rating (pigweed; [8]) | Plant response rating, Pigweed (pigweed; [9]) | Plant response rating, Barnyardgrass (barnyardgrass [2]; [6])
50: Plant response rating, Barnyardgrass (barnyardgrass [2]; [7])
90: Plant response rating, Crabgrass, Large (crabgrass, large; [9])
10: Foxtail, Giant plant response rating (giant foxtail; [8])
70: Plant response rating, Foxtail, Giant (giant foxtail; [9]) | Plant response rating, Ducksalad (ducksalad; 250 g ai/ha)

O=C1NCC(c2ccc(OC(F)(F)F)cc2)C1C(=O)Nc1ccccc1C(F)(F)F (racemic) [Compound 258]
80: Plant response rating, Foxtail, Giant (giant foxtail; [7]) | Plant response rating, Crabgrass, Large (crabgrass, large; [4]) | Plant response rating, Barnyardgrass (barnyardgrass [2]; [7])
30: Plant response rating, Wheat (wheat; [7])
90: Plant response rating, Foxtail, Giant (giant foxtail; [5]) | Plant response rating, Crabgrass, Large (crabgrass, large; [7]) | Plant response rating, Crabgrass, Large (crabgrass, large; [10]) | Plant response rating, Crabgrass, Large (crabgrass, large; [5]) | Plant response rating, Barnyardgrass (barnyardgrass [2]; [5])
20: Plant response rating, Corn (corn; [7]) | Plant response rating, Barnyardgrass (barnyardgrass [2]; [10])
40: Plant response rating, Sedge, Umbrella (sedge, umbrella; 250 g ai/ha) | Plant response rating, Barnyardgrass (barnyardgrass [2]; [4])
0: Plant response rating, Wheat (wheat; [4]) | Plant response rating, Wheat (wheat; [10]) | Plant response rating, Wheat (wheat; [5]) | Plant response rating, Morningglory (morningglory; [4]) | Plant response rating, Morningglory (morningglory; [7]) | Plant response rating, Morningglory (morningglory; [10]) | Plant response rating, Morningglory (morningglory; [5]) | Plant response rating, Velvetleaf (velvetleaf; [4]) | Plant response rating, Velvetleaf (velvetleaf; [7]) | Plant response rating, Velvetleaf (velvetleaf; [10]) | Plant response rating, Velvetleaf (velvetleaf; [5]) | Plant response rating, Barnyardgrass (barnyardgrass [1]; 250 g ai/ha) | Plant response rating, Corn (corn; [4]) | Plant response rating, Corn (corn; [10]) | Plant response rating, Corn (corn; [5]) | Plant response rating, Rice (rice; 250 g ai/ha) | Plant response rating, Pigweed (pigweed; [4]) | Plant response rating, Pigweed (pigweed; [7]) | Plant response rating, Pigweed (pigweed; [10]) | Plant response rating, Pigweed (pigweed; [5])
50: Plant response rating, Foxtail, Giant (giant foxtail; [10])
60: Plant response rating, Foxtail, Giant (giant foxtail; [4]) | Plant response rating, Ducksalad (ducksalad; 250 g ai/ha)
